Target: T1, Japanin (Rhipicephalus appendiculatus, UniProt M1MR49)
T1 construct: polyhistidine-tagged recombinant secretory lipocalin, Sf9 baculovirus; 18 kDa; N-glycosylated at Asn35 and Asn131; homodimer; disulphides Cys28-Cys150, Cys114-Cys138; modelled residues 1-154
T1 sequence (M1MR49 25-176): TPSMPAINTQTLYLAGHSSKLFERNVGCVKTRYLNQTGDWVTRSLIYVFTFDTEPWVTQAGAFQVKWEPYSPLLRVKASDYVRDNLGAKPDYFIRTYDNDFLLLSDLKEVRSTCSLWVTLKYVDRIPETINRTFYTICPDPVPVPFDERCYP
Test: X-ray crystallography ([…] and […] Å)
Type: binding
Details: co-purified ligand, no cholesterol added; one per monomer in closed lipocalin barrel pocket; crystals pH 6.9-7.2 (4boe) and pH 4.5 (4bqu), 21 °C

## CC(C)CCC[C@@H](C)[C@H]1CC[C@H]2[C@@H]3CC=C4C[C@@H](O)CC[C@]4(C)[C@H]3CC[C@]12C [CLR, cholesterol]
  X-ray crystallography (2.2 and 2.4 Å): each molecule in the crystals binds one molecule of cholesterol

Source: paper PMC5700055, “Structural basis of cholesterol binding by a novel clade of dendritic cell modulators from ticks” (Scientific Reports, 2017)
